From PubChem BioAssay (NCI)
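All cell lines were grown in 96-well plates and treated with compound for 48 hours. TGI is the concentration that stops growth completely.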

Assays:
Test in all cases: growth of human tumour cells (NCI), 48 h
786-0 renal = system: 786-0 renal
A498 renal = system: A498 renal
A549 NSCLC = system: A549 NSCLC
ACHN renal = system: ACHN renal
CAKI-1 renal = system: CAKI-1 renal
CCRF-CEM leukemia = system: CCRF-CEM leukemia
COLO 205 colon = system: COLO 205 colon
DLD-1 colon = system: DLD-1 colon
DMS 273 small cell lung = system: DMS 273 small cell lung
EKVX NSCLC = system: EKVX NSCLC
HCC-2998 colon = system: HCC-2998 colon
HCT-116 colon = system: HCT-116 colon
HCT-15 colon = system: HCT-15 colon
HL-60(TB) leukemia = system: HL-60(TB) leukemia
HOP-18 NSCLC = system: HOP-18 NSCLC
HOP-92 NSCLC = system: HOP-92 NSCLC
HT29 colon = system: HT29 colon
IGROV1 ovarian = system: IGROV1 ovarian
K-562 leukemia = system: K-562 leukemia
KM12 colon = system: KM12 colon
KM20L2 colon = system: KM20L2 colon
LOX IMVI melanoma = system: LOX IMVI melanoma
LXFL 529 NSCLC = system: LXFL 529 NSCLC
M14 melanoma = system: M14 melanoma
M19-MEL melanoma = system: M19-MEL melanoma
MALME-3M melanoma = system: MALME-3M melanoma
MOLT-4 leukemia = system: MOLT-4 leukemia
NCI-H226 lung = system: NCI-H226 lung
NCI-H23 lung = system: NCI-H23 lung
NCI-H460 lung = system: NCI-H460 lung
NCI-H522 lung = system: NCI-H522 lung
OVCAR-3 ovarian = system: OVCAR-3 ovarian
OVCAR-4 ovarian = system: OVCAR-4 ovarian
OVCAR-5 ovarian = system: OVCAR-5 ovarian
OVCAR-8 ovarian = system: OVCAR-8 ovarian
RPMI-8226 leukemia = system: RPMI-8226 leukemia
RXF 393 renal = system: RXF 393 renal
RXF-631 renal = system: RXF-631 renal
SF-268 CNS = system: SF-268 CNS
SF-295 CNS = system: SF-295 CNS
SF-539 CNS = system: SF-539 CNS
SK-MEL-2 melanoma = system: SK-MEL-2 melanoma
SK-MEL-28 melanoma = system: SK-MEL-28 melanoma
SK-MEL-5 melanoma = system: SK-MEL-5 melanoma
SK-OV-3 ovarian = system: SK-OV-3 ovarian
SN12C renal = system: SN12C renal
SNB-19 CNS = system: SNB-19 CNS
SNB-75 CNS = system: SNB-75 CNS
SNB-78 CNS = system: SNB-78 CNS
SW-620 colon = system: SW-620 colon
TK-10 renal = system: TK-10 renal
U251 CNS = system: U251 CNS
UACC-257 melanoma = system: UACC-257 melanoma
UACC-62 melanoma = system: UACC-62 melanoma
UO-31 renal = system: UO-31 renal
DMS 114 small cell lung = system: DMS 114 small cell lung
HOP-62 NSCLC = system: HOP-62 NSCLC
SR leukemia = system: SR leukemia
XF 498 CNS = system: XF 498 CNS

Measured: TGI

CN(C)c1ccc(/C=C/c2ccc(/C=C/c3ccc(N(C)C)cc3)cc2)cc1
not listed: DMS 114 small cell lung | HOP-62 NSCLC | SR leukemia | XF 498 CNS
> 100 µM: all other assays above

NC(=O)c1ccccc1NC(=O)C(=O)Cc1nc2ccccc2[nH]c1=O
not listed: HOP-18 NSCLC | HT29 colon | NCI-H226 lung | SN12C renal | SNB-78 CNS | SR leukemia | XF 498 CNS
> 100 µM: all other assays above

O=[N+]([O-])c1ccc(-c2noc(-c3ccc(Cl)cc3)c2C2=NCCN2)cc1
not listed: A498 renal | DMS 273 small cell lung | HOP-92 NSCLC | NCI-H23 lung | RXF-631 renal | SK-OV-3 ovarian | SNB-75 CNS | TK-10 renal | DMS 114 small cell lung
> 100 µM: all other assays above

NC(=O)c1c([N+](=O)[O-])cc(C(F)(F)F)cc1[N+](=O)[O-]
47.4 µM: HL-60(TB) leukemia
62.7 µM: COLO 205 colon
73.3 µM: DMS 114 small cell lung
63.3 µM: OVCAR-3 ovarian
98.9 µM: NCI-H23 lung
99.8 µM: UACC-257 melanoma
93.5 µM: KM20L2 colon
52.1 µM: MALME-3M melanoma
not listed: CCRF-CEM leukemia | HCT-15 colon | M19-MEL melanoma | RXF-631 renal | SK-MEL-2 melanoma
> 100 µM: all other assays above
